Source: patent EP2559433A1, “Composition for lowering blood lipid and elevating high-density lipoprotein and method for manufacturing the same” (Sunway Biotech Co., Ltd., priority 2011, dated 2013)

Columns and labels:
[1] = tested on: hamsters feed with high cholesterol diet; experiment: Cholesterol parameters in blood of hamsters fed a high cholesterol diet; assay type: in vivo; design: TC reducing rate / TG reducing rate / LDL-C reducing rate / LDL/HDL reducing rate / MDA reducing rate: concentration or dose not given beside the values; settings: for LDL/HDL: ratio of LDL-C to HDL-C; for LDL/HDL / HDL-C content / LDL-C content / MDA content / TC content / TG content: high cholesterol diet hamsters fed for 8 weeks; for HDL-C increasing rate / LDL-C reducing rate / LDL/HDL reducing rate / MDA reducing rate / TC reducing rate / TG reducing rate: relative to HC (high cholesterol diet group), 8 weeks; for HDL-C content: serum high density lipoprotein cholesterol; for LDL-C content: serum low density lipoprotein cholesterol; for MDA content: serum malondialdehyde; for TC content: serum total cholesterol, mean ± spread; for TG content: serum triglyceride
Description: Hereinafter, the composition of the first preferred embodiment is called as monascin (MS for abbreviation), and the amount of the monascin taken by an experimental animal is equivalent to 9.82 mg taken by an adult human per day; the composition of the second preferred embodiment is called as ankaflavin (AF for abbreviation), and the amount of the ankaflavin taken by an experimental animal is equivalent to 1.43 mg taken by an adult human per day; the composition of the third preferred embodiment is called as monascin + ankaflavin (MS+AF for abbreviation), and the amount of the monascin and ankaflavin taken by an experimental animal are equivalent to 9.82 mg and 1.43 mg taken by an adult human per day respectively. Additionally, a composition containing monacolin K is utilized as a comparison group, which is called as MK for abbreviation.
(§1) Firstly, the experiment utilizes hamsters feed with high cholesterol diet as experimental animals, which are then feed with MS, AF, MS+AF, and MK for 8 weeks, and then each of cholesterol parameters in blood of the hamsters are analyzed. The cholesterol parameters include total cholesterol (TC), triglyceride (TG), high density lipoprotein cholesterol (HDL-C), low density lipoprotein cholesterol (LDL-C), ratio of LDL-C to HDL-C, and malondialdehyde (MDA). The amount of the MK taken by the experimental animals is equivalent to 2.89 mg taken by an adult human per day. Additionally, a normal diet group is referred to as NOR, and a high cholesterol diet group is referred to as HC.
Referring to the following table 1 and table 2, wherein the table 1 illustrates the results of the above-mentioned animal experiments, and the table 2 illustrates the reducing rate or the increasing rate of MS, AF, MS+AF, and MK relative to HC. […] In the results of the reducing rate of LDL-C, although the group of MS has the effect almost the same as MK, the groups of AF and MS+AF have the effect of lowering the amount of LDL-C better than the MK group. […]

[2] = tested on: lipid plaque on arterial vascular walls in the thoracic cavity; experiment: Lipid plaque staining in arteries; assay type: in vivo, hamsters; settings: Fig. 11; high cholesterol diet for eight weeks; MK 2.89 mg, MS 9.82 mg, AF 1.43 mg adult human equivalent per day
Description: as §1
Another important indicator for evaluating atherosclerosis is the analysis of lipid plaque staining in arteries, and the results of lipid plaque staining can indicate that whether lipid plaque deposits on arterial vascular walls. Large amounts of lipid with over-oxidation can cause bulk deposition of foam cells, and then the vascular walls lose elasticity and large amounts of lipid plaque are deposited, so as to lead to atherosclerosis. Referring to Fig. 11, which is a diagram of quantitative results of the lipid plaque staining experiment.

cholesterol biosynthesis = experiment: Cell experiment on inhibition of cholesterol biosynthesis; assay type: cell-based; settings: Fig. 12; cells treated at the same concentration (100 ppb)
From the text: In order to compare the inhibitory effect of cholesterol biosynthesis by monascin, ankaflavin and monacolin K, the present invention applies a cell experiment and treats cells with monascin, ankaflavin and monacolin K with the same concentration (100 ppb) for researching the influence of these ingredients on the cholesterol biosynthesis. Referring to Fig. 12, which is a comparative diagram for the effect of the inhibition of cholesterol by monascin, ankaflavin and monacolin K with the same concentration.

Row | Compound | LDL/HDL [1] | HDL-C increasing rate [1] [%] | LDL-C reducing rate [1] [%] | LDL/HDL reducing rate [1] [%] | MDA reducing rate [1] [%] | TC reducing rate [1] [%] | TG reducing rate [1] [%] | HDL-C content [1] [mg/dL] | LDL-C content [1] [mg/dL] | MDA content [1] [mg/dL] | TC content [1] [mg/dL] | TG content [1] [mg/dL] | amount of lipid plaque [2] | effect of inhibiting the biosynthesis of cholesterol (cholesterol biosynthesis)
1 | C/C=C/C1=CC2=C(CO1)C(=O)[C@]1(C)OC(=O)[C@H](C(=O)CCCCCCC)[C@H]1C2 [AF, ankaflavin] | 0.355 ±0.049 | 17.3 | 42.3 | 37.6 | 59.6 | 28.6 | 58.2 | 118.6 ± 8.09 | 39.4 ± 5.80 | 9.07 ± 1.45 | 168.9 ± 11.5 | 94.5 ± 18.0 | – | –
2 | CC[C@H](C)C(=O)O[C@H]1C[C@@H](C)C=C2C=C[C@H](C)[C@H](CC[C@@H]3C[C@@H](O)CC(=O)O3)[C@H]21 [MK, monacolin K, reference compound] | 0.489 ±0.050 | -1.2 | 34.1 | 14.1 | 16.5 | 19.6 | 42.1 | 96.9 ± 8.84 | 45.0 ± 6.97 | 10.37 ± 1.73 | 190.3 ± 25.1 | 131.1 ± 36.7 | can lower the amount of lipid plaque | has the weakest effect
3 | C/C=C/C1=CC2=C(CO1)C(=O)[C@]1(C)OC(=O)[C@H](C(=O)CCCCC)[C@H]1C2 [MS, monascin] | 0.416 ±0.022 | 14.1 | 33.9 | 26.9 | 40.1 | 29.9 | 63.4 | 114.2 ± 9.36 | 45.1 ± 3.36 | 8.62 ± 1.45 | 165.8 ± 10.6 | 82.8 ± 9.0 | – | –
